Data taken from patent publication US12116614B2, “Methods for determining antibiotic sensitivity” (priority 2020, dated 2024).
Entries after “also recorded” stand apart in the source; their conditions may differ.

Assays:
[1] = tested on: NTHI (biofilm-resident, planktonic, anti-rsPilA NRel, anti-IHF NRel); experiment: Antibiotic sensitivity of biofilm-resident, planktonic or NRel NTHI (2 h antibiotic exposure, CFU plating); format: cell-based, Nontypeable Haemophilus influenzae
Protocol: Biofilms were established for 16 hr at 37° C. as described above. For biofilm-resident NTHI: biofilms were washed twice with DPBS and incubated in sBHI supplemented with the indicated antibiotics for at 37° C. 2 h. For planktonic NTHI: NTHI were incubated in sBHI for 3 hr as described above to reach log phase of growth, then diluted to the approximate concentration of either the anti-IHF (2×10^8 CFU/ml) or anti-rsPilA NRels (3×10^8 CFU/ml) to permit comparison between anti-IHF or anti-rsPilA NRels, (see FIG. 1). Planktonic NTHI were incubated with the indicated antibiotics at 37° C. for 2 hr. For NRel NTHI: anti-IHF or anti-rsPilA NRel, generated and collected as described above were incubated at 37° C. for 2 hr with the indicated antibiotics. CFU NTHI were determined by serial dilution and plating. Amoxicillin (Sigma-Aldrich, St. Louis, MO) and clavulanate (U.S. Pharmacopeia, Rockville, MD) were used at a ratio of 2:1. Trimethoprim (Sigma-Aldrich) and sulfamethoxazole (Santa Cruz Biotech, Dallas, TX) were used at a ratio of 1:5. […] All experiments were performed at least three times on separate days with two technical replicates for each treatment and control group.
To avoid excessive manipulation or dilution of NRel NTHI, and to permit direct comparison of equal numbers of planktonic and NRel, the planktonic cell density was adjusted to the same CFU per ml as the NRel population in each experiment as follows: NTHI were incubated statically to mid log phase growth then diluted to either 3×10^8 CFU/ml for comparison with anti-rsPilA NRel collected at 6 h, or to 2×10^8 CFU/ml for comparison with anti-IHF NRel collected at 15 min (see FIG. 1). Applicant then determined the concentrations of amoxicillin (Sigma-Aldrich, St. Louis, MO) and clavulanate (U.S. Pharmacopeia, Rockville, MD), or of trimethoprim (Sigma-Aldrich) and sulfamethoxazole (Santa Cruz Biotech, Dallas, TX) that killed approximately 25% of planktonic NTHI at each density. The same antibiotic concentrations were used for the anti-IHF or anti-rsPilA NRel, the density-matched (same CFU/ml) planktonic NTHI, and the adherent biofilm for each relevant experiment. […] Applicant then assessed killing of anti-IHF or anti-rsPilA NRel by concentrations of amoxicillin plus clavulanic acid (“augmentin”, AMC) or trimethoprim plus sulfamethoxazole (TMP-SMX) that killed 25% of the planktonic NTHI at the same density.
Anti-rsPilA or anti-IHF NRel were collected and sonicated as described above. After sonication for 2 min in a water bath sonicator to break up any NTHI aggregates, NRel or planktonic NTHI were incubated with the indicated antibiotics at 37° C. for 2 h, then serially diluted and plated on chocolate agar to quantify viable NTHI. To assay biofilm-resident NTHI, biofilms were established for 16 h at 37° C. as described above, washed twice with DPBS and incubated in sBHI supplemented with the indicated antibiotics at 37° C. After 2 h, biofilm-resident NTHI were collected by forceful pipetting, sonicated for 2 min and enumerated as described above. All experiments were performed at least three times on separate days with two or three technical replicates for each treatment and control group.

[2] = tested on: NRel versus Non-Associated NTHI
Description: Applicant tested for this phenotype for either Amox/Clav or Trimethoprim/Sulfamethoxazole to determine when this sensitivity first appears and how long this NRel phenotype lasts (i.e. what is the window of opportunity in which to treat a patient with a biofilm disease?). Here, NRel are compared not to planktonic bacteria (due to their artificiality) but rather to “Non-Associated” bacteria which are those found in the supernatant above the biofilm but not associated with biofilm residence as this population represents those bacteria that naturally come off the biofilm or were never a part of the biofilm which is a normal aspect of the preferred bacterial lifestyle in nature. […] Box Legend: NRelAC—relative killing by Amox/Clav; NRel TS—relative killing by Trimethoprim/Sulfamethoxazole; open symbols are the same but for the non-associated populations of bacteria as now described in this legend. Data was generated with a murine anti-tip chimer antibody.
Box Legend: NRelAC—relative killing by Amox/Clav; NRel TS—relative killing by Trimethoprim/Sulfamethoxazole; open symbols are the same but for the non-associated populations of bacteria as now described in this legend. Data was generated with a murine anti-tip chimer antibody.

A. baumanii [3] = experiment: Relative percent killing of planktonic versus anti-DNABII NRel by top-line antibiotics; format: cell-based; settings: 16-hour biofilms, HuTipMab 30 minutes, antibiotic 2 hours
Protocol: FIGS. 11A and 11B show relative percent killing of planktonic versus anti-DNABII NRel of five diverse species of human pathogens by each of the three current top-line antibiotics used to treat individuals with disease due to the indicated pathogen. Using the methods described herein, planktonic bacteria were recovered mid-log phase. NRel were induced by incubation of 16-hour biofilms with HuTipMab for 30 minutes. Planktonic and NRel populations were then incubated with each of three top-line antibiotics for 2 hours to determine relative percent killing. […] See boxed data in FIG. 11B for NTHI and S. aureus.

[4] = tested on: planktonic P. aeruginosa isolate JG1; experiment: MIC for planktonic clinical isolate; format: cell-based; settings: planktonic P. aeruginosa isolate JG1 from CF sputum
Protocol: (§1) Here both the planktonic and anti-DNABII NRel of JG1 were incubated with ¼ of the indicated MIC of tobramycin.
MIC refers to minimal inhibitory concentration of an active agent such as a drug that is the lowest concentration that will inhibit the visible growth of a microorganism after overnight incubation and minimal bactericidal concentrations as the lowest concentration of an antimicrobial that will prevent the growth of an organism after subculture on antibiotic free media. Methods to determine these values are well known in the art and describe in Andrews, J. (2002) Antimicrob Chemother June; 49(6):1049.

[5] = tested on: P. aeruginosa isolate JG1; experiment: Killing of planktonic and anti-DNABII NRel of clinical isolate at 1/4 MIC; format: cell-based
Protocol: as §1

A. baumanii [6] = experiment: Time and dose-dependent release into NRel state from established biofilms by HuTipMab; format: cell-based; settings: A. baumanii biofilm; versus HuIgG negative control
Protocol: (§2) FIGS. 8A to 8F show the time and dose-dependence of release of six diverse species of human pathogens into the NRel state by anti-DNABII which occurs when established biofilms are incubated with a humanized monoclonal antibody raised against a chimeric peptide identified as IhfA5-mIhfB4 tip chimer (The humanized antibody utilized in this example (identified in the Figure and herein as “HuTipMab”) comprises heavy chain 1 (HCl) and light chain 2 (LC2) as disclosed herein) but not when similarly incubated with the negative control (“HulgG” a commercially available naïve human serum of the isotype IgG).

B. cenocepacia = experiment: as above; format: cell-based; settings: B. cenocepacia biofilm; versus HuIgG negative control
Protocol: as §2

P. aeruginosa = experiment: as above; format: cell-based; settings: P. aeruginosa biofilm; versus HuIgG negative control
Protocol: as §2

S. aureus = experiment: as above; format: cell-based; settings: S. aureus biofilm; versus HuIgG negative control
Protocol: as §2

S. pneumoniae = experiment: as above; format: cell-based; settings: S. pneumoniae biofilm; versus HuIgG negative control
Protocol: as §2

[7] = tested on: nontypeable H. influenzae (NTHI); experiment: as above; format: cell-based; settings: NTHI biofilm; versus HuIgG negative control
Protocol: as §2

[8] = after exposure to anti-DNABII antibody

In the case of amoxicillin and clavulanic acid [A/C], the “sensitivity of biofilm-resident NTHI to killing” value ([1]; 16 h biofilm, 2 h antibiotic) is reported as “minimal sensitivity”, the “sensitivity to killing of anti-IHF NRel compared to biofilm-resident NTHI” value ([1]; NRel after 15 min anti-IHF, 2 h antibiotic) is reported as “significantly more sensitive” and the “sensitivity to killing of anti-IHF NRel compared to planktonic NTHI” value ([1]; NRel after 15 min anti-IHF, 2 h antibiotic at concentration killing ~20-25% of planktonic NTHI) is reported as “significantly more sensitive”. For the same molecule, the “sensitivity to killing of anti-rsPilA NRel compared to biofilm-resident NTHI” value ([1]; NRel after 6 h anti-rsPilA, 2 h antibiotic) was “significantly more sensitive”, the “sensitivity to killing of anti-rsPilA NRel compared to planktonic NTHI” value ([1]; NRel after 6 h anti-rsPilA, 2 h antibiotic at concentration killing ~20-25% of planktonic NTHI) was “only equally as sensitive; also recorded: only as equally as sensitive” and the “sensitivity to killing of anti-rsPilA NRel compared to planktonic NTHI” value ([1]; NRel after 6 h anti-rsPilA, 2 h antibiotic at concentration killing ~20-25% of planktonic NTHI, listed as AMC) was “only equally as sensitive”. For the same molecule, the “sensitivity to killing of time-matched anti-rsPilA NRel compared to planktonic NTHI” value ([1]; NRel collected after 2 h, TMP-SMX 0.09 and 0.45 μg per ml, AMC 0.3 and 0.15 μg per ml, listed as AMC) was “only equally as sensitive; also recorded: equally susceptible”, the “sensitivity to killing of time-matched anti-IHF NRel compared to planktonic NTHI” value ([1]; NRel collected after 2 h, TMP-SMX 0.94 and 4.7 μg/ml, AMC 2.5 and 1.25 μg/ml, listed as AMC) was “significantly more sensitive; also recorded: significantly more susceptible” and the “sensitivity of anti-DNABII NRel to killing compared to Non-Associated bacteria” value ([2]; NRel induced with murine anti-tip chimer antibody) was “significantly greater sensitivity”. The “time at which sensitivity of anti-DNABII NRel reaches a maximum” value [2, 8] was no more than 2 h, the “time at which significantly greater sensitivity of anti-DNABII NRel occurs” value [2, 8] was no more than 5 min and the “time until which greater sensitivity of anti-DNABII NRel lasts” value [2, 8] was roughly 3 h. For the same molecule, the “time by which greater sensitivity of anti-DNABII NRel wanes” value ([2]; post exposure to anti-DNABII antibody) was no more than 6 h.

`NC[C@H]1O[C@H](O[C@H]2[C@H](O)[C@@H](O[C@H]3O[C@H](CO)[C@@H](O)[C@H](N)[C@H]3O)[C@H](N)C[C@@H]2N)[C@H](N)C[C@@H]1O` [tobramycin] was tested, and the “relative killing of anti-DNABII NRel versus planktonic” value (A. baumanii [3]) was “not killed significantly greater”, the MIC [4] was 4086 μg tobramycin/ml and the “killing of anti-DNABII NRel of JG1 compared to planktonic” value ([5]; 1/4 MIC tobramycin, n=3, p≤0.01) was “significantly more sensitive to killing”. The “planktonic JG1 killed” value ([5]; 1/4 of the MIC of tobramycin) was roughly 25%.

B1: HuTipMab (antibody)
heavy: EVQLVESGGGLVQPGGSLRLSCAASGFTFRTYAMSWVRQAPGKGLEWVATIGSDRRHTYYPDSVKGRFTISRDNSKNTLYLQMNSLRAEDTAVYYCVGPYDGYYGEFDYWGQGTLVTVSSASTKGPSVFPLAPSSKSTSGGTAALGCLVKDYFPEPVTVSWNSGALTSGVHTFPAVLQSSGLYSLSSVVTVPSSSLGTQTYICNVNHKPSNTKVDKKVEPKSCDKTHTCPPCPAPELLGGPSVFLFPPKPKDTLMISRTPEVTCVVVDVSHEDPEVKFNWYVDGVEVHNAKTKPREEQYNSTYRVVSVLTVLHQDWLNGKEYCKVSNKALPAPIEKTISKAKGQPREPQVYTLPPSREEMTKNQVSLTCLVKGFYPSDIAVEWESNGQPENNYKTTPPVLDSDGSFFLYSKLTVDKSRWQQGNVFSCSVMHEALHNHYTQKSLSLSPG
light: DVVMTQSPLSLPVTLGQPASISCRSSQSLLDSDGKTFLNWLQQRPGQSPRRLIYLVSKRDSGVPDRFSGSGSGTDFTLKISRVEAEDVGVYYCWQGTHFPYTFGQGTKLEIKRTVAAPSVFIFPPSDEQLKSGTASVVCLLNNFYPREAKVQWKVDNALQSGNSQESVTEQDSKDSTYSLSSTLTLSKADYEKHKVYACEVTHQGLSSPVTKSFNRGEC
For B1, the “release into the NRel state over time” value (A. baumanii [6]) was “jump in the number of NRel at 30 mins regardless of dose”, the “release into the NRel state over time” value (B. cenocepacia) was “jump in the number of NRel at 30 mins regardless of dose” and the “release into the NRel state over time” value (P. aeruginosa) was “gradual, more linear increase over time”. The “release into the NRel state over time” value (S. aureus) was “jump in the number of NRel at 30 mins regardless of dose”, the “release into the NRel state over time” value (S. pneumoniae) was “gradual, more linear increase over time” and the “release into the NRel state over time” value [7] was “jump in the number of NRel at 30 mins regardless of dose”.
